Assay results from patent publication US10421750B2, “Substituted morpholine derivatives having activity against pain” (ESTEVE PHARMACEUTICALS, S.A., priority 2015, dated 2019).

Each compound was assayed against human σ1 receptor (Homo sapiens (Human), UniProt Q99720) (assay: Human σ1 receptor radioligand assay ([3H](+)-pentazocine, transfected HEK-293 membranes)). Conditions: binding to the σ1 receptor expressed as Ki, [3H](+)-pentazocine 5 nM.
Procedure: Human σ1 Receptor Radioligand Assay
To investigate binding properties of test compounds to human σ1 receptor, transfected HEK-293 membranes and [^3H](+)-pentazocine (Perkin Elmer, NET-1056), as the radioligand, were used. The assay was carried out with 7 μg of membrane suspension, 5 nM of [^3H](+)-pentazocine in either absence or presence of either buffer or 10 μM Haloperidol for total and non-specific binding, respectively. Binding buffer contained Tris-HCl 50 mM at pH 8. Plates were incubated at 37° C. for 120 minutes. After the incubation period, the reaction mix was then transferred to MultiScreen HTS, FC plates (Millipore), filtered and plates were washed 3 times with ice-cold 10 mM Tris-HCL (pH7.4). Filters were dried and counted at approximately 40% efficiency in a MicroBeta scintillation counter (Perkin-Elmer) using EcoScint liquid scintillation cocktail

Chain of human σ1 receptor (Q99720 whole entry): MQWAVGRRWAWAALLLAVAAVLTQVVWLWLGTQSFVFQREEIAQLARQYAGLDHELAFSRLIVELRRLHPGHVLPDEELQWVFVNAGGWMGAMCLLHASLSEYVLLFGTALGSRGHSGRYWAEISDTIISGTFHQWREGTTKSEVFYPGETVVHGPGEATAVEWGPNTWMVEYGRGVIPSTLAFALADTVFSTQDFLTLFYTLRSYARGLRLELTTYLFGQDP

Row | Ki | SMILES
1 | ≥ 500 nM | COc1ccc(CN2CC(C3CCN(CCc4ccccc4)CC3)OC3(CC3)C2=O)cc1 (stereo not shown) [Example 1, 7-(4-Methoxybenzyl)-5-(1-phenethylpiperidin-4-yl)4-oxa-7-azaspiro[2.5]octan-8-one]
2 | < 500 nM | O=C(c1ccccc1)N1CC(C2CCN(CCc3ccccc3)CC2)OC2(CC2)C1 (stereo not shown) [Example 2, (5-(1-phenethylpiperidin-4-yl)-4-oxa-7-azaspiro[2.5]octan-7-yl)(phenyl)methanone]
3 | < 500 nM | COc1ccc(CN2CC(C3CCN(Cc4ccccc4)CC3)OC3(CC3)C2=O)cc1 (stereo not shown) [Example 3, 5-(1-Benzylpiperidin-4-yl)-7-(4-methoxybenzyl)-4-oxa-7-azaspiro[2.5]octan-8-one]
4 | < 100 nM | O=C(c1ccccc1)N1CC(C2CCN(Cc3ccccc3)CC2)OC2(CC2)C1 (stereo not shown) [Example 4, (5-(1-benzylpiperidin-4-yl)-4-oxa-7-azaspiro[2.5]octan-7-yl)(phenyl)methanone]
5 | < 100 nM | CCN1CC(C2CCN(Cc3ccccc3)CC2)OC2(CC2)C1=O (stereo not shown) [Example 5, 5-(1-benzylpiperidin-4-yl)-7-ethyl-4-oxa-7-azaspiro[2.5]octan-8-one]
6 | ≥ 500 nM | CCN1CCC(C2CN(Cc3ccc(OC)cc3)C(=O)C3(CC3)O2)CC1 (stereo not shown) [Example 6, 5-(1-ethylpiperidin-4-yl)-7-(4-methoxybenzyl)-4-oxa-7-azaspiro[2.5]octan-8-one]
7 | < 500 nM | CC(C)N1CC(C2CCN(CCc3ccccc3)CC2)OC2(CC2)C1=O (stereo not shown) [Example 8, 7-isopropyl-5-(1-phenethylpiperidin-4-yl)-4-oxa-7-azaspiro[2.5]octan-8-one]
8 | ≥ 500 nM | O=C1N(c2ccccc2)CC(C2CCN(CCc3ccccc3)CC2)OC12CC2 (stereo not shown) [Example 9, 5-(1-Phenethylpiperidin-4-yl)-7-phenyl-4-oxa-7-azaspiro[2.5]octan-8-one]
9 | < 500 nM | O=C1N(c2ccccc2)CC(C2CCN(Cc3ccccc3)CC2)OC12CC2 (stereo not shown) [Example 10, 5-(1-benzylpiperidin-4-yl)-7-phenyl-4-oxa-7-azaspiro[2.5]octan-8-one]
10 | < 500 nM | CCN1CC(C2CCN(CCc3ccccc3)CC2)OC2(CC2)C1 (stereo not shown) [Example 11, 7-Ethyl-5-(1-phenethylpiperidin-4-yl)-4-oxa-7-azaspiro[2.5]octane]
11 | < 100 nM | COc1ccc(CN2CC(C3CCN(Cc4ccccc4)CC3)OC3(CC3)C2)cc1 (stereo not shown) [Example 12, 5-(1-benzylpiperidin-4-yl)-7-(4-methoxybenzyl)-4-oxa-7-azaspiro[2.5]octane]
12 | ≥ 500 nM | COc1ccc(CN2CC(C3CCN(CCc4ccccc4)CC3)OC3(CC3)C2)cc1 (stereo not shown) [Example 13, 7-(4-methoxybenzyl)-5-(1-phenethylpiperidin-4-yl)-4-oxa-7-azaspiro[2.5]octane]
13 | < 100 nM | CCN1CC(C2CCN(Cc3ccccc3)CC2)OC2(CC2)C1 (stereo not shown) [Example 14, 5-(1-benzylpiperidin-4-yl)-7-ethyl-4-oxa-7-asazaspiro[2.5]octane]
14 | ≥ 500 nM | COc1ccc(CN2CC(C3CCN(CC(C)C)CC3)OC3(CC3)C2=O)cc1 (stereo not shown) [Example 15, 5-(1-isobutylpiperidin-4-yl)-7-(4-methoxybenzyl)-4-oxa-7-azaspiro[2.5]octan-8-one]
15 | < 500 nM | COc1ccc(CN2CC(C3CCN(CCC(C)C)CC3)OC3(CC3)C2=O)cc1 (stereo not shown) [Example 16, 5-(1-isopentylpiperidin-4-yl)-7-(4-methoxybenzyl)-4-oxa-7-azaspiro[2.5]octan-8-one]
16 | < 500 nM | COc1ccc(CN2CC(C3CCN(Cc4ccccc4)CC3)OCC2=O)cc1 (stereo not shown) [Example 21, 6-(1-benzylpiperidin-4-yl)-4-(4-methoxybenzyl)morpholin-3-one]
17 | < 500 nM | CCN1CC(C2CN(CCC(C)C)C2)OC2(CC2)C1=O (stereo not shown) [Example 22, 7-ethyl-5-(1-isopentylazetidin-3-yl)-4-oxa-7-azaspiro[2.5]octan-8-one]
18 | ≥ 500 nM | CCN1C[C@@H](C2CCN(Cc3ccccc3)CC2)O[C@@H](C)C1=O [Example 23, (2S,6R)-6-(1-benzylpiperidin-4-yl)-4-ethyl-2-methylmorpholin-3-one]
19 | ≥ 500 nM | CCN1C[C@H](C2CCN(Cc3ccccc3)CC2)O[C@@H](C)C1=O [Example 24, (2S,6S)-6-(1-benzylpiperidin-4-yl)-4-ethyl-2-methylmorpholin-3-one]
20 | ≥ 500 nM | CCN1C[C@@H](C2CCN(Cc3ccccc3)CC2)O[C@H](C)C1=O [Example 25, (2R,6R)-6-(1-benzylpiperidin-4-yl)-4-ethyl-2-methylmorpholin-3-one]
21 | ≥ 500 nM | CCN1C[C@H](C2CCN(Cc3ccccc3)CC2)O[C@H](C)C1=O [Example 26, (2R,6S)-6-(1-benzylpiperidin-4-yl)-4-ethyl-2-methylmorpholin-3-one]

Row | Ki | SMILES
22 | ≥ 500 nM | CCN1C[C@@H](C2CCN(Cc3ccc(F)cc3)CC2)O[C@@H](C)C1=O [Example 27, (2S,6R)-4-ethyl-6-(1-(4-fluorobenzyl)piperidin-4-yl)-2-methylmorpholin-3-one]
23 | ≥ 500 nM | CCN1C[C@H](C2CCN(Cc3ccc(F)cc3)CC2)O[C@@H](C)C1=O [Example 28, (2S,6S)-4-ethyl-6-(1-(4-fluorobenzyl)piperidin-4-yl)-2-methylmorpholin-3-one]
24 | ≥ 500 nM | CCN1C[C@@H](C2CCN(Cc3ccc(F)cc3)CC2)O[C@H](C)C1=O [Example 29, (2R,6R)-4-ethyl-6-(1-(4-fluorobenzyl)piperidin-4-yl)-2-methylmorpholin-3-one]
25 | ≥ 500 nM | CCN1C[C@H](C2CCN(Cc3ccc(F)cc3)CC2)O[C@H](C)C1=O [Example 30, (2R,6S)-4-ethyl-6-(1-(4-fluorobenzyl)piperidin-4-yl)-2-methylmorpholin-3-one]
26 | ≥ 500 nM | CCN1C[C@@H](C2CCN(Cc3ccc(C#N)cc3)CC2)O[C@@H](C)C1=O [Example 31, 4-((4-((2R,6S)-4-ethyl-6-methyl-5-oxomorpholin-2-yl)piperidin-1-yl)methyl)benzonitrile]
27 | ≥ 500 nM | CCN1C[C@H](C2CCN(Cc3ccc(C#N)cc3)CC2)O[C@@H](C)C1=O [Example 32, 4-((4-((2S,6S)-4-ethyl-6-methyl-5-oxomorpholin-2-yl)piperidin-1-yl)methyl)benzonitrile]
28 | ≥ 500 nM | CCN1C[C@@H](C2CCN(Cc3ccc(C#N)cc3)CC2)O[C@H](C)C1=O [Example 33, 4-((4-((2R,6R)-4-ethyl-6-methyl-5-oxomorpholin-2-yl)piperidin-1-yl)methyl)benzonitrile]
29 | ≥ 500 nM | CCN1C[C@H](C2CCN(Cc3ccc(C#N)cc3)CC2)O[C@H](C)C1=O [Example 34, 4-((4-((2S,6R)-4-ethyl-6-methyl-5-oxomorpholin-2-yl)piperidin-1-yl)methyl)benzonitrile]
30 | ≥ 500 nM | CCN1CC(C2CCN(Cc3ccc(F)cc3)CC2)OC2(CC2)C1=O (stereo not shown) [Example 35, 7-ethyl-5-(1-(4-fluorobenzyl)piperidin-4-yl)-4-oxa-7-azaspiro[2.5]octan-8-one]
31 | ≥ 500 nM | CCN1CC(C2CCN(Cc3ccc(C#N)cc3)CC2)OC2(CC2)C1=O (stereo not shown) [Example 36, 4-((4-(7-ethyl-8-oxo-4-oxa-7-azaspiro[2.5]octan-5-yl)piperidin-1-yl)methyl)benzonitrile]
32 | ≥ 500 nM | CC(C)N1CC(C2CCN(Cc3ccccc3)CC2)OC2(CC2)C1=O (stereo not shown) [Example 37, 5-(1-benzylpiperidin-4-yl)-7-isopropyl-4-oxa-7-azaspiro[2.5]octan-8-one]
33 | ≥ 500 nM | CC(C)N1CC(C2CCN(Cc3ccc(F)cc3)CC2)OC2(CC2)C1=O (stereo not shown) [Example 38, 5-(1-(4-fluorobenzyl)piperidin-4-yl)-7-isopropyl-4-oxa-7-azaspiro[2.5]octan-8-one]
34 | ≥ 500 nM | CC(C)N1CC(C2CCN(Cc3ccc(C#N)cc3)CC2)OC2(CC2)C1=O (stereo not shown) [Example 39, 4-((4-(7-isopropyl-8-oxo-4-oxa-7-azaspiro[2.5]octan-5-yl)piperidin-1-yl)methyl)benzonitrile]
35 | < 500 nM | CCN1CC(C2CCN(CCC(C)C)CC2)OC2(CC2)C1=O (stereo not shown) [Example 40, 7-ethyl-5-(1-isopentylpiperidin-4-yl)-4-oxa-7-azaspiro[2.5]octan-8-one]
36 | < 100 nM | CCN1CC(C2CCN(Cc3ccccc3)CC2)OCC1=O (stereo not shown) [Example 41, 6-(1-benzylpiperidin-4-yl)-4-ethylmorpholin-3-one]
37 | < 500 nM | CCN1CC(C2CN(Cc3ccccc3)C2)OC2(CC2)C1=O (stereo not shown) [Example 42, 5-(1-benzylazetidin-3-yl)-7-ethyl-4-oxa-7-azaspiro[2.5]octan-8-one]
38 | < 500 nM | CCN1CC(C2CN(CCc3ccccc3)C2)OC2(CC2)C1=O (stereo not shown) [Example 43, 7-ethyl-5-(1-phenethylazetidin-3-yl)-4-oxa-7-azaspiro[2.5]octan-8-one]
39 | < 500 nM | CC(C)CCN1CCC(C2CN(c3ccccc3)C(=O)C3(CC3)O2)CC1 (stereo not shown) [Example 44, 5-(1-isopentylpiperidin-4-yl)-7-phenyl-4-oxa-7-azaspiro[2.5]octan-8-one]
40 | < 100 nM | O=C1N(c2ccccc2)CC(C2CN(Cc3ccccc3)C2)OC12CC2 (stereo not shown) [Example 45, 5-(1-benzylazetidin-3-yl)-7-phenyl-4-oxa-7-azaspiro[2.5]octan-8-one]
41 | < 500 nM | COc1ccc(CN2CC(C3CCN(CC(C)C)CC3)OC3(CC3)C2)cc1 (stereo not shown) [Example 46, 5-(1-isobutylpiperidin-4-yl)-7-(4-methoxybenzyl)-4-oxa-7-azaspiro[2.5]octane]
42 | < 100 nM | COc1ccc(CN2CC(C3CCN(CCC(C)C)CC3)OC3(CC3)C2)cc1 (stereo not shown) [Example 47, 5-(1-isopentylpiperidin-4-yl)-7-(4-methoxybenzyl)-4-oxa-7-azaspiro[2.5]octane]

Row | SMILES | Ki
43 | CCN1CC(C2CCN(CCc3ccccc3)CC2)OC2(CC2)C1=O (stereo not shown) [Example 7, 7-Ethyl-5-(1-phenethylpiperidin-4-yl)-4-oxa-7-azaspiro[2.5]octan-8-one] | < 500 nM
